According to patent US10328051B2, “Proline or proline derivatives for the treatment of dementia” (priority 2014, dated 2019):
Entries after “also recorded” stand apart in the source; their conditions may differ.

Columns and labels:
Assay type in all cases: in vivo, human
[1] = Single ascending oral doses of CHP (Study 1001-68) and single IV dose (Study 0302-72): pharmacokinetics and safety in healthy volunteers
Source text: study title Safety, tolerability and pharmacokinetic profile of single ascending doses of oral cis-4-hydroxy-L-proline (CHP) in healthy volunteers Galmed study no. 1001-68-. Results FIGS. 3 and 4.
Study title: Single Dose Absolute Bioavailability (intravenous IV solution) and Safety Study of CHP in Healthy Volunteers-GALMED Study No: 0302-72. Results are in (FIGS. 5 and 6)
Six healthy volunteers (male, caucasian—18-45 years old) were recruited from the GCP-Galmed clinical centre. All healthy volunteers provided written informed consent prior to study participation. The study was approved by the independent Ethical Committee.
All volunteers were orally administered 2, 4, 6, 8, 10 and 12 grams of CHP with a wash out period of at least one week between doses of CHP.
The following blood and urine samples were collected for determination of the pharmacokinetics parameters of CHP and THP:
10 hours and immediately prior to administration of CHP (0 Hour), and at 0.25, 0.5, 1, 1.5, 2, 2.5, 3, 4, 5, 6, 12 and 24 hours after administration of CHP.
Urine was collected for the determination of the CHP and THP concentrations and the calculation of the elimination parameters of CHP and THP.
Six healthy volunteers (male, caucasian—18-45 years old) were recruited from the GCP-Galmed clinical centre. All healthy volunteers provided written informed consent prior to study participation. The study was approved by the independent Ethical Committee. Single doses of CHP were intravenously administered: 2.0 g, 4.0 g (2×2.0 g). Each dose level was administered to all healthy volunteers. There was a washout period of at least one week between doses.
The following safety parameters were determined at the pre- and post-study examinations: • 1. Vital signs • 2. Clinical laboratory: Blood chemistry, Haematology, Coagulation, Urinalysis • 3. Adverse events (Signs and Symptoms) have been recorded in each of the two treatment periods.

[2] = Multiple dose ascending bioavailability and safety study (Phase I) with oral CHP (Study 0202-71)
Procedure: Example 5—Study Title: Multiple Dose Ascending Bioavailability and Safety Study Phase 1 with Oral CHP-GALMED Study No: 0202-71
12 healthy Caucasian males were recruited (age: 18-45 years).
Multiple doses of CHP were orally administered: • 4×2.0 g CHP per day, for 14 consecutive days (total daily dose=8.0 g CHP) • 4×3.0 g CHP per day, for 14 consecutive days (total daily dose=12.0 g CHP) Each dose level was administered to all volunteers.
Objectives • To determine the pharmacokinetic parameters and safety of CHP and THP in plasma following oral administration of multiple doses of 8 g CHP (4×2 g) and 12 g CHP (4×3 g)—4× daily, τ=6 h, respectively, in 12 healthy subjects on Day 1 and Day 14. • To model and simulate plasma concentrations of CHP and THP during Days 1 to 14.

hepatic fibrosis = assay: Phase II clinical study IPSS-B025: anti-fibrotic efficacy in chronic liver diseases
Source text: Title: Phase II—CHP in patients with chronic viral hepatitis, chronic alcohol liver diseases without cirrhosis or primary sclerosing cholangitis 45 patients—Study IPSS-B025 (Example 12.4).

[3] = healthy subjects, after oral administration of CHP 2 g-12 g
[4] = male, human, plasma, healthy subjects, oral 4×2.0 g CHP/day
[5] = oral CHP, administration 4× daily

O=C(O)[C@@H]1C[C@H](O)CN1 [CHP, cis-4-hydroxy-L-proline]
Vital parameters, clinical chemistry, haematological and urinalysis findings ([1]; CHP administered orally and intravenously to healthy volunteers (Examples 3 and 4)): all within the normal range
Oral clearance (average) [1, 3]: 199.72 mL/min
Volume of distribution (average) [1, 3]: 63.94 L
Correlation of Cmax and AUC(0-∞) with dose ([1]; healthy subjects, oral CHP doses 2 g-12 g): dose linearity
Metabolism by the liver microsomal enzyme system ([1]; human, in vivo): isomerisation, hydroxylation and demethylation
half-life ([1]; male, human, in vivo, healthy subjects, after oral administration of CHP 2 g-12 g, read-out: Elimination half life (average) (converted)): 3.7 h
MRT ([1]; male, human, in vivo, healthy subjects, after oral administration of CHP 2 g-12 g, read-out: Mean residence time (MRT) (average)): 4.15 h
Tmax ([1]; male, human, healthy subjects, plasma, after oral administration of CHP 2 g-12 g): 1.24 h
Cmax [2, 4]: 52.3 µg/mL
Tmax [2, 4]: 0.98 h
half-life [2, 4]: 34.2 h
MRT inf ([2]; male, human, plasma, healthy subjects, oral 4×2.0 g CHP/day, read-out: MRT (0-inf)): 9.33 h
Accumulation following oral administration ([2]; multiple oral doses of CHP): extensive
Time after which a steady state was observed ([2]; multiple oral doses of CHP, 4× daily, simulation of plasma concentration-time curves): approximately 48 h
Plasma half-life relative to the dosing interval ([2]; oral CHP 4× daily, τ=6 h): approximately 4 times
Css,min lower if 2.0 g of CHP was administered (versus 3.0 g) [2, 5]: 36%
Increase of AUCss,t, Css,max and Css,ave when the dose was increased from 2.0 g up to 3.0 g [2, 5]: approximately 50%
Anti-fibrotic efficacy in patients suffering from chronic liver diseases (hepatic fibrosis): inhibited the hepatic fibrosis; also recorded: antifibrotic efficacy; also recorded: anti-fibrotic efficacy; also recorded: anti-fibrotic activities
